Source: publication PMC3196665 (Chemical biology & drug design, 2011)
Read-outs that look alike come from different tables or passages of the source.

How the values were obtained:
EphA4 Fc = EphA4 Fc (Mus musculus, UniProt Q03137); assay: ELISA: inhibition of ephrin-A5 AP binding to immobilized EphA4 Fc
Eph receptors = settings: ref [36]; cited from earlier work
[1] = biological target: EphA4 AP binding to ephrin-A and ephrin-B ligands (Homo sapiens, UniProt P54764); settings: ref [37]; cited from earlier work
EphA4 AP binding to ephrin-A and ephrin-B ligands, sequence (P54764 30-209 limits assumed): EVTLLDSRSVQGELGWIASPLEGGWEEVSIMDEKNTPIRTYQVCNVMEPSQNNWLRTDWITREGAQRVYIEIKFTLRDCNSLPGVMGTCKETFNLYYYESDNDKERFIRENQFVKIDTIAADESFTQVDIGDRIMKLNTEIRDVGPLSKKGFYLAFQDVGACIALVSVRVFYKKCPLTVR

EphA2 [2] = biological target: T1, EphA2 (Homo sapiens, UniProt P29317); format: cell-based
T1 sequence (P29317 24-976): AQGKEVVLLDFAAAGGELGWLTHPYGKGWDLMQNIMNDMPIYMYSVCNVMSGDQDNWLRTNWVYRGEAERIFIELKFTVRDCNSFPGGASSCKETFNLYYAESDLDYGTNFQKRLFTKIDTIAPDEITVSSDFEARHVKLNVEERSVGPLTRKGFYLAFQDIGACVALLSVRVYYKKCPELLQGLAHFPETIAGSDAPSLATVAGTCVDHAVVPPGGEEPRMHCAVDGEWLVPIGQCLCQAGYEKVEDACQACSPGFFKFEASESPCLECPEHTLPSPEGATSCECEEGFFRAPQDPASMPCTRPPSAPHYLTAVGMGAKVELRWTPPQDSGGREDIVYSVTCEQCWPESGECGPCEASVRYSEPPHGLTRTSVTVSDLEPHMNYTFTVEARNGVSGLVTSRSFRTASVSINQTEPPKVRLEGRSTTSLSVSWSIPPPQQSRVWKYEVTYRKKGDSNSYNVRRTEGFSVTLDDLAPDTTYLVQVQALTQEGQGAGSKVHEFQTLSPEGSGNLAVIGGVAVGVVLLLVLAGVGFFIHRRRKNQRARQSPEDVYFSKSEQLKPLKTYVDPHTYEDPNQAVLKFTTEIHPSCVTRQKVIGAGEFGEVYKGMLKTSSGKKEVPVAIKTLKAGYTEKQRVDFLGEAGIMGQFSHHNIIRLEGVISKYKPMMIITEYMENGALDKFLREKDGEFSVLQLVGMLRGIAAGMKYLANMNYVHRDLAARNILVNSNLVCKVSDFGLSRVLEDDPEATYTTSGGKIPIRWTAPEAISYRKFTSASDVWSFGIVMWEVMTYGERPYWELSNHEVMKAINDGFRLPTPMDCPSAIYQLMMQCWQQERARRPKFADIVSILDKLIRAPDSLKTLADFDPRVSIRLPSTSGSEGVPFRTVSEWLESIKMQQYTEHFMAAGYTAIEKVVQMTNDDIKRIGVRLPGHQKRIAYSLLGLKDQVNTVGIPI

[3] = biological target: EphA4 ligand-binding domain (Homo sapiens, UniProt P54764); assay: 1H NMR of compound with increasing EphA4 ligand-binding domain; settings: 10 mM phosphate buffer, pH 6.5; unmodified compound
EphA4 ligand-binding domain, sequence (P54764 28-208): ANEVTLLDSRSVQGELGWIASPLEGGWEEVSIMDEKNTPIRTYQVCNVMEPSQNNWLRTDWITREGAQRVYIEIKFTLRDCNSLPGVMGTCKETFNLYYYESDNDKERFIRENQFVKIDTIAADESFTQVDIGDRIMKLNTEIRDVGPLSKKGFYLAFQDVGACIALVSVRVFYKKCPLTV

[4] = Stability of compound in DMSO, followed by ELISA IC50; format: physicochemical; settings: DMSO at ≤ 10 mM, room temperature, after 4 days
EphA6 = assay: ELISA: ephrin-A5 AP binding to immobilized EphA6 Fc
EphB1 = assay: ELISA: ephrin-B2 AP binding to immobilized EphB1 Fc
HUVE cells [5] = assay: Capillary-like tube formation of HUVECs on Matrigel; format: cell-based; settings: 18 hours
EphB6 = assay: ELISA: ephrin-B2 AP binding to immobilized EphB6 Fc
EphB4 = assay: ELISA: ephrin-B2 AP binding to immobilized EphB4 Fc
EphA7 = assay: ELISA: ephrin-A5 AP binding to immobilized EphA7 Fc
EphB2 [6] = assay: ELISA: ephrin-B2 AP binding to immobilized EphB2 Fc
EphA4 = EphA4 (Mus musculus, UniProt Q03137); assay: Ephrin-induced EphA4 tyrosine phosphorylation in HT22 neuronal cells; format: cell-based; settings: ephrin-A5 Fc
EphA4, sequence (Q03137 20-986): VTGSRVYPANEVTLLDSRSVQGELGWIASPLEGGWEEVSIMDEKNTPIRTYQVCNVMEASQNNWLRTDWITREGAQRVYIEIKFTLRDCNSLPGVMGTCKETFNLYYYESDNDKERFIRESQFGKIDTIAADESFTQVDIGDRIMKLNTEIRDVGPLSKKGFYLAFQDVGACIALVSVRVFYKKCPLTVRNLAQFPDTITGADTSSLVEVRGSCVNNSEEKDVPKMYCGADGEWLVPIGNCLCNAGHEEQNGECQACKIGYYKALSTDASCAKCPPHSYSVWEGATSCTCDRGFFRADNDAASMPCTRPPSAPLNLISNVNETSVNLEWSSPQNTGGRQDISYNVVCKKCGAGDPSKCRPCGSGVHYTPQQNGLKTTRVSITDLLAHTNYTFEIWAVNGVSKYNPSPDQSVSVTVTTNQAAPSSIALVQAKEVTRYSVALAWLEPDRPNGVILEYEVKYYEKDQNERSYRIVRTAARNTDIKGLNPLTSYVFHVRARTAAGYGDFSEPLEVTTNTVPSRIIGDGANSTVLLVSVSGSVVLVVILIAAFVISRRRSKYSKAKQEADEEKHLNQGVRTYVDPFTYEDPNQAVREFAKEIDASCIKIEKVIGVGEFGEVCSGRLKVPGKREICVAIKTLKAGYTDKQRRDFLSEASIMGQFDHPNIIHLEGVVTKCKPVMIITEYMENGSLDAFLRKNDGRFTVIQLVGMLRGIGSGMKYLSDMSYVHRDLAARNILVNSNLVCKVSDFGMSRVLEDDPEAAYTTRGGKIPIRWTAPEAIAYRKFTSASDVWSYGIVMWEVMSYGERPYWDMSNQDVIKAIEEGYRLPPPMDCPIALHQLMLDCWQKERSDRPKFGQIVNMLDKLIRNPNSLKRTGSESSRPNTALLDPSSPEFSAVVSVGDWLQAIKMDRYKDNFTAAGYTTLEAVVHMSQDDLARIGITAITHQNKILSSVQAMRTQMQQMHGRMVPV

EphA2 [7] = tested on: EphA2
PC3 cells = assay: PC3 cell retraction assay; format: cell-based
EphB2 [8] = assay: Ephrin-B2 Fc-induced EphB2 tyrosine phosphorylation in COS cells; format: cell-based
EphA2 [9] = biological target: T1, EphA2; assay: TNFα-induced EphA2 tyrosine phosphorylation in HUVE cells; format: cell-based; settings: 20 nM TNFα, 2 hours
EphA3 = assay: ELISA: ephrin-A5 AP binding to immobilized EphA3 Fc
EphA2 [10] = assay: Ephrin-A1 Fc-induced EphA2 tyrosine phosphorylation in COS cells; format: cell-based
HUVE cells [11] = assay: MTT assay, HUVE cell viability; format: cell-based; settings: 200 μM
EphB3 = assay: ELISA: ephrin-B2 AP binding to immobilized EphB3 Fc
EphA5 = assay: ELISA: ephrin-A5 AP binding to immobilized EphA5 Fc

EphA4 Fc, sequence (Q03137 20-547): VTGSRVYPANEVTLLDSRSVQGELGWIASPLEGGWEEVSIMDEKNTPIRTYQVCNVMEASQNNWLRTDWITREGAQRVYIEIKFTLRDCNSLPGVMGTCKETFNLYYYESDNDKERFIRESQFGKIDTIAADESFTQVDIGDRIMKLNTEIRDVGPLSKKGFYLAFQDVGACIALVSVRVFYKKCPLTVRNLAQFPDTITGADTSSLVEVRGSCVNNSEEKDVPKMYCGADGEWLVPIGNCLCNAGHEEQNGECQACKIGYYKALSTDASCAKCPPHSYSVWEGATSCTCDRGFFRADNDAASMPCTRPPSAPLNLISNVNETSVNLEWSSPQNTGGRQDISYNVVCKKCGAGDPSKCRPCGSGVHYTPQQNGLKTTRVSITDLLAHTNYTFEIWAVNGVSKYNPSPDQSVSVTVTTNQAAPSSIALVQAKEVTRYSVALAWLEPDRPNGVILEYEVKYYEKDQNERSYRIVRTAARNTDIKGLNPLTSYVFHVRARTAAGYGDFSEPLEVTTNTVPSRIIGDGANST

O=Cc1ccc(-c2ccc(O)c(C(=O)O)c2)o1 [Compound 76B8, 5-(5-formylfuran-2-yl)-2-hydroxybenzoic acid]
Inhibitory activity on ephrin-A5 AP binding to EphA4 Fc (EphA4 Fc): did not show detectable inhibitory activity

C[C@H](CCC(=O)O)[C@H]1CC[C@H]2[C@@H]3CC[C@@H]4C[C@H](O)CC[C@]4(C)[C@H]3CC[C@]12C [lithocholic acid]
Inhibition of Eph receptors (Eph receptors): inhibit with similar low potency all Eph receptors examined

Cc1ccc(C)n1-c1ccc(O)c(C(=O)O)c1 [Compound 2]
Inhibition of EphA4 AP binding to ephrin-A4 and ephrin-B2 [1]: do not efficiently inhibit

Cc1ccc(C)n1-c1ccc(C(=O)O)c(O)c1 [Compound 1, reference compound]
Inhibition of EphA4 AP binding to ephrin-A4 and ephrin-B2 [1]: do not efficiently inhibit | Change of activity in ephrin-A5-EphA4 ELISA on storage (EphA4 Fc; dry form exposed to air at room temperature): becomes progressively more active | Inhibition of ephrin-A5 AP binding to EphA4 Fc (EphA4 Fc; newly synthesized preparation): did not show detectable inhibition | Inhibition of ephrin-A5 AP binding to EphA4 Fc (EphA4 Fc; purchased preparation): activity comparable to that previously reported | Inhibition of EphA2 phosphorylation in cells stimulated with ephrin-A1 Fc (EphA2 [2]; newly synthesized preparation, PC3 cells): did not show detectable inhibition | Inhibition of EphA2 phosphorylation in cells stimulated with ephrin-A1 Fc (EphA2 [2]; purchased preparation, PC3 cells): activity comparable to that previously reported | Binding to EphA4 (resonance peak shifts of compound protons) [3]: some, albeit weak, ability to bind to EphA4

COC(=O)/C=C/c1ccc(-c2ccc(O)c(C(=O)OC)c2)o1 [Compound 76A5, (E)-methyl 2-hydroxy-5-(5-(3-methoxy-3-oxoprop-1-en-1-yl)furan-2-yl)benzoate]
Inhibitory activity on ephrin-A5 AP binding to EphA4 Fc (EphA4 Fc): did not show detectable inhibitory activity

O=C(/C=C/c1ccc(-c2ccc(O)c(C(=O)O)c2)o1)/C=C/c1ccc(-c2ccc(O)c(C(=O)O)c2)o1 [Compound 76D10]
Increase in IC50 values on storage in DMSO [4]: 10 fold | Inhibition of ephrin-A5 binding to EphA6 (EphA6): inhibits with substantial potency | Inhibition of ephrin binding to EphB1 (EphB1): much lower to undetectable inhibitory activity | Inhibition of capillary-like tube formation (HUVE cells [5]): inhibits capillary-like tube formation | Selectivity among EphA and EphB receptors examined (EphA4 Fc): preferentially inhibits | Time to binding equilibrium after addition of ephrin-A5 AP with compound (EphA4 Fc): ≤ 3 h | Inhibitory activity in the presence of BSA (EphA4 Fc; 0.1 mg/ml BSA): lost | Inhibitory activity in the presence of collagen (EphA4 Fc; 0.1 mg/ml collagen): not affected | Reversibility of binding to EphA4 in ELISA (EphA4 Fc; 3 hour incubation, wash, 24 hours in binding buffer): does not appear to be reversible | Mode of inhibition (Bmax and KD of ephrin-A5 AP binding curves) (EphA4 Fc; increasing 76D10 concentrations): consistent with competitive inhibition | Inhibition of ephrin-B2 binding to EphB6 (EphB6): inhibits with substantial potency | Inhibition of ephrin-B2 binding to EphB4 (EphB4): inhibits with substantial potency | Inhibition of ephrin-A5 binding to EphA7 (EphA7): inhibits with substantial potency | Inhibition of ephrin binding to EphB2 (EphB2 [6]): much lower to undetectable inhibitory activity | Inhibition of EphA4 tyrosine phosphorylation (EphA4): inhibits EphA4 tyrosine phosphorylation | Effect of BSA in culture medium on compound activity (EphA2 [2]; 0.1 mg/mL BSA, COS and PC3 cells): inhibited the activity | Inhibition of EphA2 tyrosine phosphorylation (EphA2 [2]; PC3 cells, ephrin-A1 Fc): inhibits tyrosine phosphorylation | Selectivity among EphA and EphB receptors examined (EphA2 [7]): preferentially inhibits | Effect on cell morphology in the absence of ephrin (PC3 cells): does not affect cell morphology | Reversal of the effect of ephrin-A1 on cell area (PC3 cells; 25 μM): partially | Reversal of the effect of ephrin-A1 on cell area (PC3 cells; 50 μM): partially | Reversal of the effect of ephrin-A1 on cell area (PC3 cells; 100 μM): reverted completely | Inhibition of ephrin-A1 Fc-induced cell retraction (PC3 cells; concentrations between 25 and 100 μM): significantly counteracts these effects | Inhibition of EphB2 tyrosine phosphorylation (EphB2 [8]): not EphB2 tyrosine phosphorylation | Inhibition of EphA2 tyrosine phosphorylation in response to TNFα (EphA2 [9]): inhibits EphA2 tyrosine phosphorylation | Inhibition of ephrin binding to EphA3 (EphA3): much lower to undetectable inhibitory activity | Inhibition of EphA2 tyrosine phosphorylation (EphA2 [10]): inhibits tyrosine phosphorylation | HUVE cell viability (MTT) (HUVE cells [11]; three days): minimally affected | HUVE cell viability (MTT) (HUVE cells [11]; up to one day): not affected | Inhibition of ephrin binding to EphB3 (EphB3): much lower to undetectable inhibitory activity | Inhibition of ephrin-A5 binding to EphA5 (EphA5): inhibits with substantial potency
